Activity calls are given as the source filed them. No cut-off for these calls is given here.
Columns and labels:
[1] = molecular target: T1, Cereblon/Casein kinase I alpha (Homo sapiens, UniProt P48729+Q96SW2); experiment: Molecular glue activity at CRBN/HiBiT-tagged CK1-alpha in human Jurkat cells assessed as induction of CK1-alpha degradation incubated for 5 hrs by Nano-Glo HiBiT assay; assay type: cell-based
[2] = Metabolic stability in mouse liver microsomes assessed as intrinsic clearance; assay type: ADME, Microsome
[3] = Metabolic stability in human liver microsomes assessed as intrinsic clearance; assay type: ADME, Microsome
[4] = test system: MOLT-4; experiment: Induction of GSPT1 degradation in human MOLT-4 cells at 1 uM incubated for 5 hrs by quantitative mass spectrometry based proteomic analysis; assay type: cell-based
[5] = molecular target: Zinc finger protein Aiolos (Homo sapiens) (UniProt Q9UKT9); experiment: Induction of IKZF3 degradation in human MOLT-4 cells at 1 uM incubated for 5 hrs by quantitative mass spectrometry based proteomic analysis; assay type: cell-based
Chain of Zinc finger protein Aiolos (Homo sapiens) (Q9UKT9 whole entry): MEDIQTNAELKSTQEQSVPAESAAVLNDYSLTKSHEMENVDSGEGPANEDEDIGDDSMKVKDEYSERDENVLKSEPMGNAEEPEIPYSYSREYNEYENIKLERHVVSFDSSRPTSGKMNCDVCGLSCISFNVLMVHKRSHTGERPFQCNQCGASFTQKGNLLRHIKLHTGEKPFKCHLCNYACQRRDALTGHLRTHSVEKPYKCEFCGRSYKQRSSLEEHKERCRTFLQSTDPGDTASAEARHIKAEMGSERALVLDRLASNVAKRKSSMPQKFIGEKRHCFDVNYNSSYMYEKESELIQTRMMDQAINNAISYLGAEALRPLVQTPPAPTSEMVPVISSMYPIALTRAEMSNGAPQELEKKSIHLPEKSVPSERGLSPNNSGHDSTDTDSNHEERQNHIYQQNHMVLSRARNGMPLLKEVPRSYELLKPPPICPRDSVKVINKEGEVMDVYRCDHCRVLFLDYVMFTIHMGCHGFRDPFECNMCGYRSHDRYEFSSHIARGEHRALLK

[6] = test system: MOLT-4; experiment: Induction of IKZF1 degradation in human MOLT-4 cells at 1 uM incubated for 5 hrs by quantitative mass spectrometry based proteomic analysis; assay type: cell-based
[7] = Metabolic stability in mouse liver microsomes assessed as half life; assay type: ADME, Microsome; conditions: for t1/2: microsomes
[8] = test system: MOLT-4; experiment: Induction of WEE1 degradation in human MOLT-4 cells at 1 uM incubated for 5 hrs by quantitative mass spectrometry based proteomic analysis; assay type: cell-based
[9] = Metabolic stability in human liver microsomes assessed as half life; assay type: ADME, Microsome
[10] = molecular target: T1, Cereblon/Casein kinase I alpha; experiment: Molecular glue activity at CRBN/CK1-alpha in human MOLM-14 cells assessed as induction of CK1-alpha degradation at 1 uM incubated for 5 hrs by Western blot analysis; assay type: cell-based
Target sequence in this assay (P48729 2-337 limits assumed): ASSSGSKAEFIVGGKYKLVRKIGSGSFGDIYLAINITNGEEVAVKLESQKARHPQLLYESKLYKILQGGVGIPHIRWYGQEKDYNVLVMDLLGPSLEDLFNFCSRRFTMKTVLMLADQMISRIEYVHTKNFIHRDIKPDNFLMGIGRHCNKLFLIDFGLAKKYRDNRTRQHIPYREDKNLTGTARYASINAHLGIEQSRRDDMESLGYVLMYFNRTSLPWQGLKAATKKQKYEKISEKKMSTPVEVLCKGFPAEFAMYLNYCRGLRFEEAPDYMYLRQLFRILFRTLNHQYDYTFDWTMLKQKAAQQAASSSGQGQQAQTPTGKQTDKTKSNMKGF
Target sequence in this assay (Q96SW2 whole entry partner): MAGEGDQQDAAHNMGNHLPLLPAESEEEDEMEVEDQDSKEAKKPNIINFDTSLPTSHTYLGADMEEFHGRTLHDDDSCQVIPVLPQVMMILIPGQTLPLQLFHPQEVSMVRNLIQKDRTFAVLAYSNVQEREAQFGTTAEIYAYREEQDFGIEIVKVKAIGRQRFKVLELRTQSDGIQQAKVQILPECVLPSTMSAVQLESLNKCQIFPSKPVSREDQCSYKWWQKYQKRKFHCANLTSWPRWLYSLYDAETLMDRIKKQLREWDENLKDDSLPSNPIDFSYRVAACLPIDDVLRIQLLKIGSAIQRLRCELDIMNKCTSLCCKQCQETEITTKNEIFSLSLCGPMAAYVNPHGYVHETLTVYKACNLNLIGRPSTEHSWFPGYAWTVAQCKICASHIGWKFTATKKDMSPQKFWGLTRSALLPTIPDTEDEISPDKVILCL

[11] = molecular target: T1, Cereblon/Casein kinase I alpha; experiment: Molecular glue activity at CRBN/CK1-alpha in human MOLM-13 cells assessed as induction of CK1-alpha degradation at 1 uM incubated for 5 hrs by Western blot analysis; assay type: cell-based
Target sequence in this assay (P48729 2-337 limits assumed): as the sequence (P48729 2-337 limits assumed) above
Target sequence in this assay (Q96SW2 whole entry partner): as the sequence (Q96SW2 whole entry partner) above

[12] = molecular target: T1, Cereblon/Casein kinase I alpha; experiment: Molecular glue activity at CRBN/CK1-alpha in human MOLM-13 cells assessed as increase in p53 level at 0.1 to 1 uM incubated for 24 hrs by Western blot analysis; assay type: cell-based; conditions: dose 0.1-1 µM
Target sequence in this assay (P48729 2-337 limits assumed): as the sequence (P48729 2-337 limits assumed) above
Target sequence in this assay (Q96SW2 whole entry partner): as the sequence (Q96SW2 whole entry partner) above

[13] = molecular target: T1, Cereblon/Casein kinase I alpha; experiment: Molecular glue activity at CRBN/CK1-alpha in human MOLM-14 cells assessed as increase in p53 level at 0.1 to 1 uM incubated for 24 hrs by Western blot analysis; assay type: cell-based; conditions: dose 0.1-1 µM
Target sequence in this assay (P48729 2-337 limits assumed): as the sequence (P48729 2-337 limits assumed) above
Target sequence in this assay (Q96SW2 whole entry partner): as the sequence (Q96SW2 whole entry partner) above

[14] = molecular target: T1, Cereblon/Casein kinase I alpha; experiment: Molecular glue activity at CRBN/CK1-alpha in human MOLM-14 cells assessed as increase in p21 level at 0.1 to 1 uM incubated for 24 hrs by Western blot analysis; assay type: cell-based; conditions: dose 0.1-1 µM
Target sequence in this assay (P48729 2-337 limits assumed): as the sequence (P48729 2-337 limits assumed) above
Target sequence in this assay (Q96SW2 whole entry partner): as the sequence (Q96SW2 whole entry partner) above

[15] = molecular target: T1, Cereblon/Casein kinase I alpha; experiment: Molecular glue activity at CRBN/CK1-alpha in human MOLM-13 cells assessed as increase in p21 level at 0.1 to 1 uM incubated for 24 hrs by Western blot analysis; assay type: cell-based; conditions: dose 0.1-1 µM
Target sequence in this assay (P48729 2-337 limits assumed): as the sequence (P48729 2-337 limits assumed) above
Target sequence in this assay (Q96SW2 whole entry partner): as the sequence (Q96SW2 whole entry partner) above

[16] = test system: MOLM-14; experiment: Antiproliferative activity against human MOLM-14 cells with CRBN-/- incubated for 72 hrs by CellTiter-Glo Luminescent Cell Viability Assay; assay type: functional, cell-based
[17] = test system: MOLM-13; experiment: Antiproliferative activity against human MOLM-13 cells incubated for 72 hrs by CellTiter-Glo Luminescent Cell Viability Assay; assay type: functional, cell-based; conditions: MOLM-13, 72 h
[18] = molecular target: T1, Cereblon/Casein kinase I alpha; experiment: Molecular glue activity at CRBN/CK1-alpha in human MOLM-14 cells assessed as increase in MDM2 level at 0.1 to 1 uM incubated for 24 hrs by Western blot analysis; assay type: cell-based; conditions: dose 0.1-1 µM
[19] = molecular target: T1, Cereblon/Casein kinase I alpha; experiment: Molecular glue activity at CRBN/CK1-alpha in human MOLT-4 cells with CRBN-/- assessed as induction of CK1-alpha degradation at 1 uM incubated for 5 hrs by quantitative mass spectrometry based proteomic analysis; assay type: cell-based
[20] = molecular target: T1, Cereblon/Casein kinase I alpha; experiment: Molecular glue activity at CRBN/CK1-alpha in human MOLM-13 cells assessed as increase in MDM2 level at 0.1 to 1 uM incubated for 24 hrs by Western blot analysis; assay type: cell-based; conditions: dose 0.1-1 µM
[21] = test system: MOLM-14; experiment: Antiproliferative activity against human MOLM-14 cells incubated for 72 hrs by CellTiter-Glo Luminescent Cell Viability Assay; assay type: functional, cell-based
[22] = molecular target: T1, Cereblon/Casein kinase I alpha; experiment: Molecular glue activity at CRBN/CK1-alpha in human MOLT-4 cells assessed as induction of CK1-alpha degradation at 1 uM incubated for <3 hrs by Western blot analysis; assay type: cell-based

SMILES: COc1cccn2cc(C(=O)Nc3ccc4c(c3)CN(C3CCC(=O)NC3=O)C4=O)nc12 (stereo unspecified)
- DC50 [1]: 8.1 nM
- EC90 [1]: 73.1 nM

SMILES: O=C1CCC(N2Cc3cc(NC(=O)c4cnc5ccccc5c4)ccc3C2=O)C(=O)N1 (stereo unspecified)
- CLH [2]: < 6 µL/min/mg
- CLH [3]: 30 µL/min/mg
- Activity [4]: inactive
- Activity [5]: inactive
- DC50 [1]: 79 nM
- Activity [6]: inactive
- t1/2 [7]: > 120 min
- Activity [8]: inactive
- t1/2 [9]: 23.4 min

SMILES: O=C1CCC(N2Cc3c(CNC(=O)c4cnc5ccccc5c4)cccc3C2=O)C(=O)N1 (stereo unspecified)
- DC50 [1]: 138 nM

SMILES: O=C1CCC(N2C(=O)c3ccc(NC(=O)c4cnc5ccccc5c4)cc3C2=O)C(=O)N1 (stereo unspecified)
- DC50 [1]: 79 nM

SMILES: O=C1CCC(N2Cc3cc(NC(=O)c4cn5cc(Cl)ccc5n4)ccc3C2=O)C(=O)N1 (stereo unspecified)
- DC50 [1]: 1.3 nM
- EC90 [1]: 14.9 nM

SMILES: O=C1CCC(N2Cc3cc(CNC(=O)c4cn5ccccc5n4)ccc3C2=O)C(=O)N1 (stereo unspecified)
- DC50 [1]: > 10000 nM

SMILES: CCN(CC)CCNC(=O)c1c(C)[nH]c(/C=C2\C(=O)Nc3ccc(F)cc32)c1C [SUNITINIB]
- CLH [2]: 33 µL/min/mg
- CLH [3]: 18 µL/min/mg
- half-life ([7]; liver microsomes): 20.9 min
- t1/2 [9]: 39.4 min

SMILES: CN1C(=O)CCC(N2Cc3cc(NC(=O)c4cn5ccccc5n4)ccc3C2=O)C1=O (stereo unspecified)
- Activity [10]: Active
- Activity [11]: Active
- DC50 [1]: > 10000 nM

SMILES: O=C1CCC(N2Cc3cc(-c4cnc5ccccc5c4)ccc3C2=O)C(=O)N1 (stereo unspecified)
- CLH [2]: 11 µL/min/mg
- CLH [3]: < 6 µL/min/mg
- Activity [4]: inactive
- Activity [10]: Active
- Activity [12]: Active
- Activity [13]: Active
- Activity [14]: Active
- Activity [15]: Active
- Activity [16]: inactive
- IC50 [17]: 2400 nM
- Activity [11]: Active
- Activity [18]: Active
- Activity [5]: inactive
- Activity [19]: Not active; Compound Induced Ck1-Alpha Degradation In A Crbn Dependent Manner
- DC50 [1]: 46.8 nM
- Activity [20]: Active
- Activity [21]: Active
- Activity [6]: inactive
- t1/2 [7]: 65.6 min
- Activity [8]: inactive
- t1/2 [9]: > 120 min
- Activity [22]: Active

SMILES: O=C1CCC(N2Cc3cc(NC(=O)c4cn5cccc(C(F)(F)F)c5n4)ccc3C2=O)C(=O)N1 (stereo unspecified)
- Activity [10]: Active
- Activity [16]: inactive
- IC50 [17]: 29 nM
- Activity [11]: Active
- DC50 [1]: 1.6 nM
- EC90 [1]: 25 nM
- Activity [21]: Active

SMILES: O=C1CCC(N2Cc3cc(NC(=O)c4cc5ncccn5n4)ccc3C2=O)C(=O)N1 (stereo unspecified)
- DC50 [1]: 61 nM

SMILES: O=C1CCC(N2Cc3c(NC(=O)c4cnc5ccccc5c4)cccc3C2=O)C(=O)N1 (stereo unspecified)
- DC50 [1]: > 10000 nM

SMILES: O=C1CCC(N2C(=O)c3ccc(NC(=O)c4cn5ccccc5n4)cc3C2=O)C(=O)N1 (stereo unspecified)
- DC50 [1]: 88 nM

SMILES: O=C1CCC(N2Cc3cc(NC(=O)c4cn5cc(F)ccc5n4)ccc3C2=O)C(=O)N1 (stereo unspecified)
- DC50 [1]: 6.1 nM
- EC90 [1]: 45.5 nM

SMILES: O=C1CCC(N2Cc3cc(NC(=O)c4cnc5ccccn45)ccc3C2=O)C(=O)N1 (stereo unspecified)
- DC50 [1]: 82 nM

SMILES: Cc1cccc2nc(C(=O)Nc3ccc4c(c3)CN(C3CCC(=O)NC3=O)C4=O)cn12 (stereo unspecified)
- DC50 [1]: 3.3 nM
- EC90 [1]: 35.3 nM

SMILES: O=C1CCC(N2Cc3cc(CNC(=O)c4cnc5ccccc5c4)ccc3C2=O)C(=O)N1 (stereo unspecified)
- DC50 [1]: > 10000 nM

SMILES: O=C1CCC(N2Cc3cc(NC(=O)c4cc5ccccc5cn4)ccc3C2=O)C(=O)N1 (stereo unspecified)
- Activity [4]: inactive
- Activity [5]: inactive
- DC50 [1]: 7.56 nM
- Activity [6]: inactive
- Activity [8]: inactive

SMILES: COc1ccc2cc(C(=O)Nc3ccc4c(c3)CN(C3CCC(=O)NC3=O)C4=O)ccc2c1 (stereo unspecified)
- Activity [12]: Active
- Activity [13]: Active
- Activity [14]: Active
- Activity [15]: Active
- Activity [18]: Active
- Activity [19]: Not active; Compound Induced Ck1-Alpha Degradation In A Crbn Dependent Manner
- Activity [20]: Active

SMILES: COc1ccc2nc(C(=O)Nc3ccc4c(c3)CN(C3CCC(=O)NC3=O)C4=O)cn2c1 (stereo unspecified)
- CLH [2]: < 6 µL/min/mg
- CLH [3]: 21 µL/min/mg
- Activity [10]: Active
- Activity [16]: inactive
- IC50 [17]: 23 nM
- Activity [11]: Active
- DC50 [1]: 1.1 nM
- EC90 [1]: 16.2 nM
- Activity [21]: Active
- t1/2 [7]: > 120 min
- t1/2 [9]: 33.2 min

SMILES: Cc1c(C(=O)Nc2ccc3c(c2)CN(C2CCC(=O)NC2=O)C3=O)nc2ccccn12 (stereo unspecified)
- DC50 [1]: 8.4 nM

SMILES: O=C1CCC(N2Cc3cc(NC(=O)c4nc5ccccn5n4)ccc3C2=O)C(=O)N1 (stereo unspecified)
- DC50 [1]: 61 nM

SMILES: COc1ccn2cc(C(=O)Nc3ccc4c(c3)CN(C3CCC(=O)NC3=O)C4=O)nc2c1 (stereo unspecified)
- DC50 [1]: 3.1 nM
- EC90 [1]: 53 nM

SMILES: O=C1CCC(N2Cc3cc(Nc4noc5ccccc45)ccc3C2=O)C(=O)N1 (stereo unspecified)
- Activity [12]: Active
- Activity [13]: Active
- Activity [14]: Active
- Activity [15]: Active
- Activity [18]: Active
- Activity [19]: Not active; Compound Induced Ck1-Alpha Degradation In A Crbn Dependent Manner
- Activity [20]: Active

SMILES: O=C1CCC(N2Cc3cc(NC(=O)c4nc5ccccc5[nH]4)ccc3C2=O)C(=O)N1 (stereo unspecified)
- DC50 [1]: 11.1 nM

SMILES: O=C1CCC(N2Cc3cc(NC(=O)c4cn5ccc(F)cc5n4)ccc3C2=O)C(=O)N1 (stereo unspecified)
- DC50 [1]: 17.5 nM
- EC90 [1]: 135 nM

SMILES: O=C1CCC(N2Cc3cc(NC(=O)c4cc5ccccn5n4)ccc3C2=O)C(=O)N1 (stereo unspecified)
- CLH [2]: 111 µL/min/mg
- CLH [3]: 11 µL/min/mg
- Activity [10]: Active
- Activity [16]: inactive
- IC50 [17]: 14 nM
- Activity [11]: Active
- DC50 [1]: 4.7 nM
- Activity [21]: Active
- t1/2 [7]: 6.3 min
- t1/2 [9]: 65.4 min

SMILES: O=C1CCC(N2Cc3ccc(NC(=O)c4cn5ccccc5n4)cc3C2=O)C(=O)N1 (stereo unspecified)
- DC50 [1]: > 10000 nM

SMILES: O=C1CCC(N2Cc3cc(NC(=O)c4cc5ccccn5c4)ccc3C2=O)C(=O)N1 (stereo unspecified)
- DC50 [1]: 87 nM

SMILES: O=C1CCC(N2Cc3cc(NC(=O)c4cnc5ccccc5n4)ccc3C2=O)C(=O)N1 (stereo unspecified)
- DC50 [1]: 8.8 nM

From ChEMBL document CHEMBL6153096, “Development of Potent and Selective CK1α Molecular Glue Degraders” (J Med Chem, 2025)
